Assay results taken from the NIST ThermoML archive (doi:10.1016/j.jct.2008.05.014).

Test: xn = mol fraction of the nth substance listed
Settings: Liquid; for speed of sound: Pulse-echo method

CCCCCCCCCCCC [dodecane] + CCCCCCC
Settings	mass density [kg/m3]	speed of sound [m/s]
298.15 K, 91180 kPa, x2 = 0.5003	–	1642.1
298.15 K, 101320 kPa, x2 = 0.1014	–	1704.4
298.15 K, 101320 kPa, x2 = 0.4999	–	1676
298.15 K, 101320 kPa, x2 = 0.5003	–	1676.4
298.16 K, 101 kPa, x2 = 0	–	1278.9
298.16 K, 101 kPa, x2 = 0.3002	–	1246.5
298.16 K, 101 kPa, x2 = 0.3996	726.184	–
298.16 K, 101 kPa, x2 = 0.6	713.735	1205.1
298.16 K, 101 kPa, x2 = 0.8995	–	1151.9
298.16 K, 15200 kPa, x2 = 0	–	1365.9
298.16 K, 15200 kPa, x2 = 0.3007	–	1336
298.16 K, 15200 kPa, x2 = 0.4999	–	1314.6
298.16 K, 15200 kPa, x2 = 0.7007	–	1286.6
298.16 K, 30390 kPa, x2 = 0	–	1440
298.16 K, 30390 kPa, x2 = 0.3007	–	1413
298.16 K, 30390 kPa, x2 = 0.7007	–	1368.2
298.16 K, 45580 kPa, x2 = 0	–	1507
298.16 K, 45590 kPa, x2 = 0.3007	–	1481.9
298.16 K, 60790 kPa, x2 = 0	–	1568
298.16 K, 75990 kPa, x2 = 0	–	1625.2
298.16 K, 75990 kPa, x2 = 0.3007	–	1602.7
298.16 K, 91180 kPa, x2 = 0	–	1677.7
298.16 K, 91180 kPa, x2 = 0.3007	–	1656.7
298.16 K, 91180 kPa, x2 = 0.7007	–	1623.2
298.16 K, 101320 kPa, x2 = 0	–	1711.1
298.16 K, 101320 kPa, x2 = 0.3007	–	1690.7
298.16 K, 101320 kPa, x2 = 0.7007	–	1658.1
298.17 K, 101 kPa, x2 = 0.7002	–	1188.8
298.17 K, 101 kPa, x2 = 0.8	–	1171.2
298.17 K, 15200 kPa, x2 = 0.1014	–	1356.6
298.17 K, 15200 kPa, x2 = 0.8496	–	1264.5
298.17 K, 30390 kPa, x2 = 0.8496	–	1348.6
298.17 K, 45590 kPa, x2 = 0.8496	–	1422.9
298.17 K, 60790 kPa, x2 = 0.8496	–	1489.9
298.17 K, 75990 kPa, x2 = 0.8496	–	1551
298.17 K, 91180 kPa, x2 = 0.8496	–	1608.3
298.17 K, 101320 kPa, x2 = 0.8496	–	1644.1
298.18 K, 101 kPa, x2 = 0.1007	–	1268.9
298.18 K, 101 kPa, x2 = 0.3996	–	1233.8
298.18 K, 101 kPa, x2 = 0.5002	–	1219.9
298.18 K, 30390 kPa, x2 = 0.1014	–	1431.7
298.19 K, 101 kPa, x2 = 0.2001	–	1258.1
303.12 K, 15200 kPa, x2 = 0.9391	–	1228.3
303.12 K, 30390 kPa, x2 = 0.9391	–	1315.5
303.12 K, 30390 kPa, x2 = 0.97	–	1312
303.12 K, 45590 kPa, x2 = 0.9391	–	1392
303.12 K, 45590 kPa, x2 = 0.97	–	1388.9
303.12 K, 60790 kPa, x2 = 0.9391	–	1461.1
303.12 K, 60790 kPa, x2 = 0.97	–	1458.4
303.12 K, 75990 kPa, x2 = 0.9391	–	1523.8
303.12 K, 75990 kPa, x2 = 0.97	–	1521.5
303.12 K, 91180 kPa, x2 = 0.9391	–	1582
303.12 K, 91180 kPa, x2 = 0.97	–	1579.9
303.12 K, 101320 kPa, x2 = 0.9391	–	1618.9
303.12 K, 101320 kPa, x2 = 0.97	–	1616.9
303.13 K, 15200 kPa, x2 = 0.97	–	1224
303.13 K, 101320 kPa, x2 = 0.1014	–	1691.2
303.13 K, 101320 kPa, x2 = 0.5003	–	1663
303.14 K, 101 kPa, x2 = 0.6	–	1184.8
303.14 K, 101 kPa, x2 = 0.8995	–	1130.7
303.14 K, 15200 kPa, x2 = 0.1014	–	1339.1
303.14 K, 15200 kPa, x2 = 0.4999	–	1296.5
303.14 K, 30390 kPa, x2 = 0	–	1423.8
303.14 K, 30390 kPa, x2 = 0.1014	–	1415.2
303.14 K, 30390 kPa, x2 = 0.4999	–	1376.6
303.14 K, 30390 kPa, x2 = 0.5003	–	1376.5
303.14 K, 45590 kPa, x2 = 0	–	1491.4
303.14 K, 45590 kPa, x2 = 0.1014	–	1483.5
303.14 K, 45590 kPa, x2 = 0.3007	–	1466.1
303.14 K, 45590 kPa, x2 = 0.4999	–	1448
303.14 K, 45590 kPa, x2 = 0.5003	–	1448.1
303.14 K, 60790 kPa, x2 = 0	–	1553.1
303.14 K, 60790 kPa, x2 = 0.1014	–	1545.7
303.14 K, 60790 kPa, x2 = 0.4999	–	1512.9
303.14 K, 60790 kPa, x2 = 0.5003	–	1513
303.14 K, 60790 kPa, x2 = 0.7007	–	1491.3
303.14 K, 75990 kPa, x2 = 0	–	1610.9
303.14 K, 75990 kPa, x2 = 0.1014	–	1603.8
303.14 K, 75990 kPa, x2 = 0.4999	–	1572.4
303.14 K, 75990 kPa, x2 = 0.5003	–	1572.6
303.14 K, 75990 kPa, x2 = 0.7007	–	1552
303.14 K, 91180 kPa, x2 = 0	–	1664.1
303.14 K, 91180 kPa, x2 = 0.1014	–	1657.4
303.14 K, 91180 kPa, x2 = 0.3007	–	1642.8
303.14 K, 91180 kPa, x2 = 0.4999	–	1627.9
303.14 K, 91180 kPa, x2 = 0.5003	–	1628.3
303.14 K, 91180 kPa, x2 = 0.7007	–	1609.1
303.14 K, 101320 kPa, x2 = 0	–	1697.4
303.14 K, 101320 kPa, x2 = 0.3007	–	1677
303.14 K, 101320 kPa, x2 = 0.4999	–	1662.6
303.14 K, 101320 kPa, x2 = 0.7007	–	1644.6
303.15 K, 101 kPa, x2 = 0	741.636	1259.3
303.15 K, 101 kPa, x2 = 0.0991	737.456	–
303.15 K, 101 kPa, x2 = 0.2008	732.789	–
303.15 K, 101 kPa, x2 = 0.2998	727.833	–
303.15 K, 101 kPa, x2 = 0.3002	–	1226.7
303.15 K, 101 kPa, x2 = 0.7002	–	1168.2
303.15 K, 101 kPa, x2 = 0.7005	702.52	–
303.15 K, 101 kPa, x2 = 0.7995	694.549	–
303.15 K, 101 kPa, x2 = 0.8486	690.238	–
303.15 K, 101 kPa, x2 = 0.8988	685.588	–
303.15 K, 101 kPa, x2 = 0.9498	680.563	–
303.15 K, 15200 kPa, x2 = 0	–	1348.5
303.15 K, 15200 kPa, x2 = 0.3007	–	1317.9
303.15 K, 15200 kPa, x2 = 0.5003	–	1296.5
303.15 K, 15200 kPa, x2 = 0.7007	–	1268.1
303.15 K, 30390 kPa, x2 = 0.3007	–	1396
303.15 K, 30390 kPa, x2 = 0.7007	–	1351.3
303.15 K, 30390 kPa, x2 = 0.8496	–	1331.4
303.15 K, 45590 kPa, x2 = 0.7007	–	1425
303.15 K, 60790 kPa, x2 = 0.3007	–	1529.4
303.15 K, 75990 kPa, x2 = 0.3007	–	1588.1
303.15 K, 75990 kPa, x2 = 0.8496	–	1536.5
303.15 K, 91180 kPa, x2 = 0.8496	–	1594.2
303.15 K, 101320 kPa, x2 = 0.8496	–	1630.5
303.16 K, 101 kPa, x2 = 0.1007	–	1249.4
303.16 K, 101 kPa, x2 = 0.3996	722.389	1213.9
303.16 K, 101 kPa, x2 = 0.5	716.383	–
303.16 K, 101 kPa, x2 = 0.5002	–	1199.8
303.16 K, 101 kPa, x2 = 0.6	709.824	–
303.16 K, 101 kPa, x2 = 0.8	–	1150.3
303.16 K, 15200 kPa, x2 = 0.8496	–	1245.8
303.16 K, 45590 kPa, x2 = 0.8496	–	1406.8
303.16 K, 60790 kPa, x2 = 0.8496	–	1474.8
